≈ marks a conversion by molar mass, not a printed value.
Legend:
Streptococcus mutans [1] = experiment: Antibiofilm activity against Streptococcus mutans assessed as inhibition of biofilm formation on hydroxyapatite surface at 5 ug/ml relative to control; format: functional
Streptococcus mutans [2] = experiment: Antibiofilm activity against Streptococcus mutans assessed as inhibition of biofilm formation at 200 ug/ml after 4 hrs by Congo red staining based assay relative to control; format: functional
Streptococcus mutans [3] = experiment: Antibiofilm activity against Streptococcus mutans assessed as inhibition of biofilm formation at 200 ug/ml after 4 hrs by crystal violet staining based assay relative to control; format: functional
[4] = Binding affinity to Streptococcus mutans GtfB
[5] = Binding affinity to Streptococcus mutans GtfC
Streptococcus mutans [6] = experiment: Antibiofilm activity against Streptococcus mutans assessed as inhibition of biofilm formation at 12.5 ug/ml relative to control; format: functional
Streptococcus mutans [7] = experiment: Antibiofilm activity against Streptococcus mutans assessed as inhibition of biofilm formation on using surface coated compound at 0.06 uM relative to control; format: functional
Streptococcus mutans [8] = experiment: Antibiofilm activity against 24 hrs-old biofilm of Streptococcus mutans assessed as reduction in cell viability relative to control; format: functional
Streptococcus mutans [9] = experiment: Antibiofilm activity against Streptococcus mutans assessed as inhibition of biofilm formation by measuring drug level causing induction of micro-colony phenotype; format: functional
Streptococcus mutans [10] = experiment: Antibiofilm activity against Streptococcus mutans assessed as decrease in biofilm viability at 0.053 to 53 uM by LIVE/DEAD staining based assay relative to control; format: functional
Streptococcus mutans [11] = experiment: Antibiofilm activity against Streptococcus mutans assessed as reduction in cell viability at 50 ug/ml relative to control; format: functional
Streptococcus mutans [12] = experiment: Antibiofilm activity against Streptococcus mutans assessed as inhibition of biofilm formation at 250 uM on saliva-coated glass slides relative to control; format: functional
Sortase A = target: T1, Sortase A (Streptococcus mutans, UniProt Q8CM62); experiment: Binding affinity to Streptococcus mutans Sortase A
T1 sequence (Q8CM62 whole entry): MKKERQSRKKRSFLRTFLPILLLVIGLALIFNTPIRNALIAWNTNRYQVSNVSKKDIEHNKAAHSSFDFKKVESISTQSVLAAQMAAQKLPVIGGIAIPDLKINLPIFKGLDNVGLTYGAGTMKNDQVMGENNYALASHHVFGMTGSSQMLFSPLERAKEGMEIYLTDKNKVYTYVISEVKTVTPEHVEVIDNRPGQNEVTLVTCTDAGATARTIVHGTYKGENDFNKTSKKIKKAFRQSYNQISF

Streptococcus mutans [13] = experiment: Antibacterial activity against Streptococcus mutans; format: organism-based
Streptococcus mutans [14] = experiment: Antibiofilm activity against Streptococcus mutans assessed as inhibition of biofilm formation by measuring reduction in cell adherence at sub-MIC level relative to control; format: functional
Streptococcus mutans [15] = experiment: Antibiofilm activity against Streptococcus mutans assessed as inhibition of biofilm formation; format: functional, organism-based; conditions: for IC50: Streptococcus mutans
Streptococcus mutans [16] = experiment: Antibiofilm activity against 24 hrs-old biofilm of Streptococcus mutans assessed as reduction in cell viability at 5 ug/ml relative to control; format: functional
Streptococcus mutans [17] = experiment: Antibiofilm activity against 24 hrs-old biofilm of Streptococcus mutans assessed as reduction in cell viability at 10 ug/ml relative to control; format: functional
Streptococcus mutans [18] = experiment: Inhibition of Streptococcus mutans F-ATPase activity relative to control; conditions: concentration not given here
Streptococcus mutans [19] = experiment: Antibacterial activity against Streptococcus mutans assessed as inhibition of planktonic growth relative to control; format: organism-based
Streptococcus mutans [20] = experiment: Antibiofilm activity against Streptococcus mutans assessed as reduction in biomass at 0.63 ug/ml relative to control; format: functional
[21] = Inhibition of Streptococcus mutans VicK autophosphorylation activity
[22] = Inhibition of Streptococcus mutans LiaS autophosphorylation activity
[23] = Inhibition of Streptococcus mutans CiaH autophosphorylation activity

With `Cc1cc(O)c2c(c1)C(=O)c1cc(O)cc(O)c1C2=O` [EMODIN] the inhibition at 5 µg/mL (Streptococcus mutans [1]) was 90%.

In the case of `CCCCCCCCCCCCCCCCCC(=O)Oc1cc(C(=O)O[C@@H]2Cc3c(O)cc(O)cc3O[C@@H]2c2cc(OC(=O)CCCCCCCCCCCCCCCCC)c(O)c(OC(=O)CCCCCCCCCCCCCCCCC)c2)cc(OC(=O)CCCCCCCCCCCCCCCCC)c1O`, the inhibition at 200 µg/mL (Streptococcus mutans [2]) is reported as 100% and the inhibition at 200 µg/mL (Streptococcus mutans [3]) is reported as 100%.

Work on `NC(=O)c1ccccc1NC(=O)c1cc2cc([N+](=O)[O-])ccc2s1` yielded a Kd [4] of 3.7 µM, a Kd [5] of 0.0469 µM and an inhibition at 12.5 µg/mL (Streptococcus mutans [6]) of 85%.

`O=C1C=C/C(=C\Br)O1` gave an inhibition at 0.06 µM (Streptococcus mutans [7]) of 63%.

In the case of `O=C1C=C(Br)/C(=C/Br)O1`, the “inhibition (INH)” value (Streptococcus mutans [8]) is reported as 60%.

With `C=CCc1ccc(O)c(OC)c1` [EUGENOL] the INH (Streptococcus mutans [9]) was 0.3125 µg/mL.

For `CO[C@H](CC(=O)O)[C@@H](C)C(=O)[C@H](C)/C=C(\C)[C@H]1OC(=O)[C@H](O)[C@H](O)/C=C/[C@H](C)CCC[C@@H]1C`, the “inhibition (INH)” value (Streptococcus mutans [10]) was 55 - 65%.

Work on `Cc1cccc(N/C=C2/C=C(c3ccc(Cl)cc3)OC2=O)n1` yielded an inhibition at 50 µg/mL (Streptococcus mutans [11]) of 75%.

In the case of `O=C(/C=C/c1ccccc1)c1ccccc1` [CHALCONE], the inhibition at 250 µM (Streptococcus mutans [12]) is reported as 90% and the IC50 (Sortase A) is reported as 5 µM.

For `CCC[C@@H]1CCC[C@]2(CCC)C(=O)CCC[C@@H]12`, the MIC (Streptococcus mutans [13]) was 156.25 µg/mL, the “inhibition (INH)” value (Streptococcus mutans [14]) was 50% and the MBIC50 (Streptococcus mutans [15]) was 39 µg/mL.

With `COc1ccc(CCNc2nc3ccccc3nc2NCCc2ccc(OC)cc2)cc1` the inhibition at 5 µg/mL (Streptococcus mutans [16]) was 46% and the inhibition at 10 µg/mL (Streptococcus mutans [17]) was 79%.

In the case of `O=C(O[C@@H]1Cc2c(O)cc(O)cc2O[C@@H]1c1cc(O)c(O)c(O)c1)c1cc(O)c(O)c(O)c1` [EPIGALOCATECHIN GALLATE], the MIC (Streptococcus mutans [13]) is reported as 31.25 µg/mL, the inhibition (Streptococcus mutans [18]) is reported as 50% and the MBIC90 (Streptococcus mutans [15]) is reported as 15.6 µg/mL.

Molecule `COc1cc(/C=C/C(=O)CC(=O)/C=C/c2ccc(O)c(OC)c2)ccc1O` [CURCUMIN] has an MIC (Streptococcus mutans [13]) of 125 µM and an IC50 (Sortase A) of 10.2 µM.

`C[C@H]1/C=C/[C@H]2OC(C)(C)O[C@H]2C(=O)O[C@H](c2cccc(CCCCC(=O)O)c2)[C@@H](C)CCC1` showed an MBIC50 (Streptococcus mutans [15]) of 63 µM.

With `CCCCCCCCCCCCCCCc1c[nH]c(N)n1.Cl` the IC50 (Streptococcus mutans [15]) was 0.94 µM and the “growth inhibition (GI)” value (Streptococcus mutans [19]) was < 13%.

Molecule `Oc1ccc(/C=C/c2cc(O)cc(O)c2)cc1` [RESVERATROL] has a Kd [4] of 144 µM and a Kd [5] of 510 µM.

`Oc1cc(O)cc(/C=C/c2ccc(O)c(O)c2)c1` [PICEATANNOL] gave a Kd [5] of 14.6 µM and an IC50 (Streptococcus mutans [15]) of 52 µM.

For `O=c1c(O)c(-c2ccc(O)cc2O)oc2cc(O)cc(O)c12` [MORIN], the IC50 (Sortase A) was 27.2 µM.

With `CCC(C)C1(O)C(C)C(=O)c2c(c(OC)c3ccc(-c4ccc5c(Cl)c6c(c(O)c5c4O)C(=O)C(C)C(O)(C(C)C)C6/C(=C\C(=O)O)OC)c(O)c3c2O)C1/C(C)=C\C(=O)O` (stereo not given) the inhibition at 0.63 µg/mL (Streptococcus mutans [20]) was 60%, the IC50 [21] was 2.53 µg/mL (≈ 2.94 µM) and the IC50 [22] was 4.96 µg/mL (≈ 5.76 µM). The IC50 [23] was 4.29 µg/mL (≈ 4.98 µM).
